Measurements: publication PMC12846815, “Structural basis for iterative methylation by a cobalamin-dependent radical S-adenosylmethionine enzyme in cystobactamids biosynthesis” (Proceedings of the National Academy of Sciences of the …, 2026)

How the values were obtained:
ccCysS [1] = target: T1, ccCysS (Corallococcus sp. CA054B, UniProt A0A3A8HCN5); experiment: X-ray crystal structure, […] Å; format: binding; conditions: active site, two conformers; with Met, 5′dA, Cbl and [Fe4S4]; anoxic, pH 6.0
T1 construct: gene D7V80_23740; codon-optimised gene in pSUMO, N-terminal SUMO tag cleaved with Ulp1; E. coli BL21(DE3) with pDB1282 and pBAD42-BtuCEDFB; monomer; TLS groups span residues 5 to 704
T1 sequence (A0A3A8HCN5 1-645): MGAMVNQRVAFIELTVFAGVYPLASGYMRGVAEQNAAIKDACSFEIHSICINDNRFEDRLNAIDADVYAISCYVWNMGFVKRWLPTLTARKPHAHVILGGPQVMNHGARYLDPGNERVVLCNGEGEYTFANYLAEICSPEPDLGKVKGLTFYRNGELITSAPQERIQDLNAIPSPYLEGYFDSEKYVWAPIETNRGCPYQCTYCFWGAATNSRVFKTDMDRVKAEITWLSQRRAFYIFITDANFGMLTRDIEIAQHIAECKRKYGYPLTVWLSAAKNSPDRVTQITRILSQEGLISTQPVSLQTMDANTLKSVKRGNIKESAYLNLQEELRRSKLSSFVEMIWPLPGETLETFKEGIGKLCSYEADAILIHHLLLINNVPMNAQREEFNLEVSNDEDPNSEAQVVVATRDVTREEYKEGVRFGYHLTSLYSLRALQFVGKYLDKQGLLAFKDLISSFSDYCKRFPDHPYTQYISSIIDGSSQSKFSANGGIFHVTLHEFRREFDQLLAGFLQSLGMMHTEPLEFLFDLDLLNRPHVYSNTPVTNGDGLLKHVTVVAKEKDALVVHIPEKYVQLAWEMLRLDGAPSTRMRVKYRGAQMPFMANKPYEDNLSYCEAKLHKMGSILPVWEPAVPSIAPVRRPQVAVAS

ccCysS [2] = target: T2, ccCysS (Corallococcus sp. CA054B, UniProt A0A3A8HCN5, W271A); experiment: LC-MS product quantification; format: biochemical; conditions: 500 µM SAM, 2 mM Ti(III) citrate, pH 7.5, room temperature
T2 construct: gene D7V80_23740; codon-optimised gene in pSUMO, N-terminal SUMO tag cleaved with Ulp1; E. coli BL21(DE3) with pDB1282 and pBAD42-BtuCEDFB; monomer; TLS groups span residues 5 to 704
T2 sequence (A0A3A8HCN5 1-645 W271A): T1 sequence (A0A3A8HCN5 1-645)

cbCysS = target: T3, cbCysS (Cystobacter sp. Cbv34, UniProt A0A0H4NV78); experiment: LC-MS product quantification; format: biochemical; conditions: 500 µM SAM, 2 mM Ti(III) citrate, pH 7.5, room temperature
T3 construct: gene cysS; codon-optimised gene in pSUMO, N-terminal SUMO tag cleaved with Ulp1; E. coli BL21(DE3) with pDB1282 and pBAD42-BtuCEDFB; monomer
T3 sequence (A0A0H4NV78 1-642): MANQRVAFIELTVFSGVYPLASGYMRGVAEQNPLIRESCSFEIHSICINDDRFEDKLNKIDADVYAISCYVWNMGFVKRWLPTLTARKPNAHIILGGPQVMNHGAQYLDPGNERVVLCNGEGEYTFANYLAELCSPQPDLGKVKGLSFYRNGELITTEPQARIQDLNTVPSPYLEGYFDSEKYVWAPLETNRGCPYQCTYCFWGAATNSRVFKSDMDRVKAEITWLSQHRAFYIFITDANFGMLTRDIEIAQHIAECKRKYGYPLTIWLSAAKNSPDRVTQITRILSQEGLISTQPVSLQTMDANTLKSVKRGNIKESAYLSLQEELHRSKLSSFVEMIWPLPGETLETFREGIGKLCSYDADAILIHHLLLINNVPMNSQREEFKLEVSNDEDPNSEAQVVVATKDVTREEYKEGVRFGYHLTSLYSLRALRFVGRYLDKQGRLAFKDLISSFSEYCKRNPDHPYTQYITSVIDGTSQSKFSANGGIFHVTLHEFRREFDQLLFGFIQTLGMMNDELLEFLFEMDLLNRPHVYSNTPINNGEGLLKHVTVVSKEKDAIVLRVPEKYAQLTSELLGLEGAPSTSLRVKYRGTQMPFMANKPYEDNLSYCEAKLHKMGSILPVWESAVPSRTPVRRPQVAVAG

ccCysS [3] = target: T1, ccCysS; experiment: X-ray crystal structure, […] Å; format: binding; conditions: active site, one conformer; with Met, 5′dA, Cbl and [Fe4S4]; anoxic, pH 6.0
ccCysS [4] = target: T4, ccCysS (Corallococcus sp. CA054B, UniProt A0A3A8HCN5, F485Y); experiment: LC-MS product quantification; format: biochemical; conditions: 500 µM SAM, 2 mM Ti(III) citrate, pH 7.5, room temperature
T4 construct: gene D7V80_23740; codon-optimised gene in pSUMO, N-terminal SUMO tag cleaved with Ulp1; E. coli BL21(DE3) with pDB1282 and pBAD42-BtuCEDFB; monomer; TLS groups span residues 5 to 704
T4 sequence (A0A3A8HCN5 1-645 F485Y): T1 sequence (A0A3A8HCN5 1-645)

ccCysS [5] = target: T5, ccCysS (Corallococcus sp. CA054B, UniProt A0A3A8HCN5, F485W); experiment: LC-MS product quantification; format: biochemical; conditions: 500 µM SAM, 2 mM Ti(III) citrate, pH 7.5, room temperature
T5 construct: gene D7V80_23740; codon-optimised gene in pSUMO, N-terminal SUMO tag cleaved with Ulp1; E. coli BL21(DE3) with pDB1282 and pBAD42-BtuCEDFB; monomer; TLS groups span residues 5 to 704
T5 sequence (A0A3A8HCN5 1-645 F485W): T1 sequence (A0A3A8HCN5 1-645)

ccCysS [6] = target: T1, ccCysS; experiment: LC-MS product quantification; format: biochemical; conditions: 500 µM SAM, 2 mM Ti(III) citrate, pH 7.5, room temperature
ccCysS [7] = target: T6, ccCysS (Corallococcus sp. CA054B, UniProt A0A3A8HCN5, F485L); experiment: LC-MS product quantification; format: biochemical; conditions: 500 µM SAM, 2 mM Ti(III) citrate, pH 7.5, room temperature
T6 construct: gene D7V80_23740; codon-optimised gene in pSUMO, N-terminal SUMO tag cleaved with Ulp1; E. coli BL21(DE3) with pDB1282 and pBAD42-BtuCEDFB; monomer; TLS groups span residues 5 to 704
T6 sequence (A0A3A8HCN5 1-645 F485L): T1 sequence (A0A3A8HCN5 1-645)

SMILES	X-ray crystal structure, 1.75 Å (ccCysS [1])	LC-MS product quantification (ccCysS [2])	LC-MS product quantification (cbCysS)	X-ray crystal structure, 2.00 Å (ccCysS [3])	LC-MS product quantification (ccCysS [4])	LC-MS product quantification (ccCysS [5])	LC-MS product quantification (ccCysS [6])	LC-MS product quantification (ccCysS [7])
COc1cc(C(=O)OCCNC(=O)CCNC(=O)[C@H](O)C(C)(C)CO)ccc1N [OMe, OMe substrate]	Structures with the OMe or OEt substrates have well-defined substrate electron densities	changed to Ala, the variant shows much lower activity across all three methylations	In reactions using the OMe substrate, only the OEt and O^iPr products are detected	–	–	–	–	–
CCOc1cc(C(=O)OCCNC(=O)CCNC(=O)[C@H](O)C(C)(C)CO)ccc1N [OEt, OEt substrate]	–	–	–	Structures with the OMe or OEt substrates have well-defined substrate electron densities	–	–	–	–
CC(C)Oc1cc(C(=O)OCCNC(=O)CCNC(=O)[C@H](O)C(C)(C)CO)ccc1N [OiPr, O^iPr substrate]	–	–	The O^sBu and O^tBu products are observed only when starting from the O^iPr substrate	–	F485Y and F485W yield fewer overall methylated products	F485Y and F485W yield fewer overall methylated products	The O^sBu and O^tBu products are observed only when starting from the O^iPr substrate	The F485L variant, less bulky than wild-type (WT) ccCysS, produces methylated products in roughly equal amounts
